“And” between values parts separate entries of the source, which are not always exact repeats. Identical values can stand only once. Toxic doses and inconclusive results are not listed.
System: P388 leukemia ip, CD2F1 mice, survival T/C
Assay: NCI In Vivo Anticancer Drug Screen. Data for tumor model P388 Leukemia (intraperitoneal) in CD2F1 (CDF1) mice
Conditions: endpoint: median survival time, higher = longer survival
Method in brief: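 Mice carrying the transplanted tumor received test compound or vehicle. Survival was recorded in each group, and the value is the treated-group measurement divided by that of the vehicle-treated control group.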

[1] = dose: 100.0 mg/kg/injection, schedule: Q04DX002 (ip), vehicle: saline
[2] = dose: 200.0 mg/kg/injection, schedule: Q04DX002 (ip), vehicle: saline
[3] = dose: 50.0 mg/kg/injection, schedule: Q01DX005 (ip), vehicle: Klucel (hydroxypropylcellulose) (HPC)
[4] = dose: 100.0 mg/kg/injection, schedule: Q01DX005 (ip), vehicle: Klucel (hydroxypropylcellulose) (HPC)
[5] = dose: 25.0 mg/kg/injection, schedule: Q01DX009 (ip), vehicle: saline with Tween-80
[6] = dose: 50.0 mg/kg/injection, schedule: Q01DX009 (ip), vehicle: saline with Tween-80
[7] = dose: 100.0 mg/kg/injection, schedule: Q01DX009 (ip), vehicle: saline with Tween-80
[8] = dose: 200.0 mg/kg/injection, schedule: Q01DX009 (ip), vehicle: saline with Tween-80

In the case of `CCCCn1cnc2c(cnn2C)c1=N`, the T/C [1] is reported as 97 % of control and the T/C [2] is reported as 97 % of control.
`NC(=O)c1nc2c(N)nc(-c3ccccc3)nc2nc1N` was tested, and the T/C (dose: 150.0 mg/kg/injection, schedule: Q01DX009 (ip), vehicle: saline with Tween-80) was 94 % of control and the T/C (dose: 300.0 mg/kg/injection, schedule: Q01DX009 (ip), vehicle: saline with Tween-80) was 95 % of control.
In the case of `CC(C)(C)N1CCC1`, the T/C [3] is reported as 100 % of control and the T/C [4] is reported as 99 % of control.
In the case of `COc1ccc2c(c1)N(C(=O)CNC(C)(C)C)c1ccccc1S2`, the T/C [1] is reported as 117 % of control and the T/C [2] is reported as 99 % of control.
With `COC(=O)c1cc2c(s1)CCC/C(Cl)=C(/C=O)C2` the T/C (dose: 6.25 mg/kg/injection, schedule: Q01DX009 (ip), vehicle: saline with Tween-80) was 96 % of control, the T/C (dose: 6.25 mg/kg/injection, schedule: Q01DX009 (ip), vehicle: saline) was 97 % of control and the T/C (dose: 12.5 mg/kg/injection, schedule: Q01DX009 (ip), vehicle: saline with Tween-80) was 104 % of control and 94 % of control. For the same molecule, the T/C (dose: 12.5 mg/kg/injection, schedule: Q01DX009 (ip), vehicle: saline) was 91 % of control, the T/C [5] was 106 % of control and 95 % of control and the T/C (dose: 25.0 mg/kg/injection, schedule: Q01DX009 (ip), vehicle: saline) was 97 % of control. The T/C [6] was 100 % of control and 107 % of control, the T/C (dose: 50.0 mg/kg/injection, schedule: Q01DX009 (ip), vehicle: saline) was 101 % of control and 120 % of control and the T/C (dose: 100.0 mg/kg/injection, schedule: Q01DX009 (ip), vehicle: saline) was 103 % of control.
`COc1cccc2c1C(=O)c1c(O)c3c(c(O)c1C2=O)CC(O)(C(C)=O)CC3OC1CC(N)C(O)C(C)O1` (centres undefined) was tested, and the T/C (dose: 0.63 mg/kg/injection, schedule: Q01DX009 (ip), vehicle: water) was 150 % of control and 163 % of control, the T/C (dose: 1.25 mg/kg/injection, schedule: Q01DX009 (ip), vehicle: water) was 158 % of control [middle of 7 runs] and the T/C (dose: 1.5 mg/kg/injection, schedule: Q01DX009 (ip), vehicle: water) was 103 % of control. For the same molecule, the T/C (dose: 2.5 mg/kg/injection, schedule: Q01DX009 (ip), vehicle: water) was 160 % of control [middle of 16 runs], the T/C (dose: 2.9 mg/kg/injection, schedule: Q01DX009 (ip), vehicle: saline) was 102 % of control and the T/C (dose: 3.0 mg/kg/injection, schedule: Q01DX009 (ip), vehicle: water) was 110 % of control. For the same molecule, the T/C (dose: 3.13 mg/kg/injection, schedule: Q01DX009 (ip), vehicle: water) was 155 % of control, the T/C (dose: 5.0 mg/kg/injection, schedule: Q01DX009 (ip), vehicle: water) was 167 % of control [middle of 17 runs] and the T/C (dose: 6.0 mg/kg/injection, schedule: Q01DX009 (ip), vehicle: water) was 110 % of control. The T/C (dose: 6.25 mg/kg/injection, schedule: Q01DX009 (ip), vehicle: water) was 171 % of control, the T/C (dose: 8.0 mg/kg/injection, schedule: Q04DX003 (ip), vehicle: water) was 114 % of control and the T/C (dose: 10.0 mg/kg/injection, schedule: Q01DX009 (ip), vehicle: water) was 178 % of control [middle of 14 runs]. The T/C (dose: 11.0 mg/kg/injection, schedule: Q04DX003 (ip), vehicle: water) was 103 % of control and 109 % of control, the T/C (dose: 12.0 mg/kg/injection, schedule: Q01DX009 (ip), vehicle: water) was 116 % of control and the T/C (dose: 12.5 mg/kg/injection, schedule: Q01DX009 (ip), vehicle: water) was 174 % of control. For the same molecule, the T/C (dose: 15.0 mg/kg/injection, schedule: Q04DX003 (ip), vehicle: water) was 121 % of control, the T/C (dose: 16.0 mg/kg/injection, schedule: Q04DX003 (ip), vehicle: water) was 110 % of control and 122 % of control and the T/C (dose: 20.0 mg/kg/injection, schedule: Q01DX009 (ip), vehicle: other) was 155 % of control. For the same molecule, the T/C (dose: 21.9 mg/kg/injection, schedule: Q04DX003 (ip), vehicle: water) was 97 % of control and 118 % of control, the T/C (dose: 23.4 mg/kg/injection, schedule: Q01DX009 (ip), vehicle: saline) was 188 % of control and the T/C (dose: 24.0 mg/kg/injection, schedule: Q01DX009 (ip), vehicle: water) was 108 % of control. The T/C (dose: 25.0 mg/kg/injection, schedule: Q01DX009 (ip), vehicle: water) was 197 % of control, the T/C (dose: 40.0 mg/kg/injection, schedule: Q01DX009 (ip), vehicle: water) was 104 % of control and the T/C (dose: 43.8 mg/kg/injection, schedule: Q04DX003 (ip), vehicle: water) was 106 % of control. For the same molecule, the T/C (dose: 64.0 mg/kg/injection, schedule: Q04DX003 (ip), vehicle: water) was 110 % of control, the T/C (dose: 87.5 mg/kg/injection, schedule: Q04DX003 (ip), vehicle: water) was 157 % of control and the T/C (dose: 88.0 mg/kg/injection, schedule: Q04DX003 (ip), vehicle: water) was 182 % of control. The T/C (dose: 120.0 mg/kg/injection, schedule: Q04DX003 (ip), vehicle: water) was 160 % of control, the T/C (dose: 128.0 mg/kg/injection, schedule: Q04DX003 (ip), vehicle: water) was 168 % of control and 172 % of control and the T/C (dose: 175.0 mg/kg/injection, schedule: Q04DX003 (ip), vehicle: water) was 182 % of control. For the same molecule, the T/C (dose: 240.0 mg/kg/injection, schedule: Q04DX003 (ip), vehicle: water) was 101 % of control, the T/C (dose: 256.0 mg/kg/injection, schedule: Q04DX003 (ip), vehicle: water) was 177 % of control and the T/C (dose: 350.0 mg/kg/injection, schedule: Q04DX003 (ip), vehicle: water) was 97 % of control.
For `O=C(O)C(=O)O.OO.OO.[O]=[V]`, the T/C (dose: 0.94 mg/kg/injection, schedule: Q01DX005 (ip), vehicle: saline) was 92 % of control and the T/C (dose: 3.75 mg/kg/injection, schedule: Q01DX005 (ip), vehicle: saline) was 110 % of control.
With `CN1C(=O)C(O)(c2c3c(c(C4(O)C(=O)N(C)c5ccccc54)c4c2OCO4)OCO3)c2ccccc21` (centres undefined) the T/C (dose: 60.0 mg/kg/injection, schedule: Q01DX005 (ip), vehicle: saline with Tween-80) was 89 % of control, the T/C (dose: 120.0 mg/kg/injection, schedule: Q01DX005 (ip), vehicle: saline with Tween-80) was 91 % of control and the T/C (dose: 240.0 mg/kg/injection, schedule: Q01DX005 (ip), vehicle: saline with Tween-80) was 91 % of control.
For `Brc1cnc2ccccn12`, the T/C [6] was 101 % of control, the T/C [7] was 102 % of control and the T/C [8] was 114 % of control.
In the case of `CC(C)c1[nH]c2ccccc2c1Cn1ccnc1`, the T/C [3] is reported as 100 % of control and the T/C [4] is reported as 114 % of control.
`C=CS(=O)(=O)c1ccc(Nc2cc(S(=O)(=O)O)c(N)c3c2C(=O)c2ccccc2C3=O)cc1` was tested, and the T/C [5] was 116 % of control and 120 % of control, the T/C [6] was 104 % of control and 115 % of control and 123 % of control and the T/C [7] was 107 % of control and 120 % of control and 123 % of control. The T/C [8] was 105 % of control and 118 % of control.
In the case of `COc1cc(OC)c(C(=O)CCN(C)C)cc1OC`, the T/C (dose: 60.0 mg/kg/injection, schedule: Q01DX005 (ip), vehicle: saline) is reported as 109 % of control, the T/C (dose: 120.0 mg/kg/injection, schedule: Q01DX005 (ip), vehicle: saline) is reported as 116 % of control and the T/C (dose: 240.0 mg/kg/injection, schedule: Q01DX005 (ip), vehicle: saline) is reported as 114 % of control.
`Clc1ccc(/C=C/c2ccc3ccccc3n2)cc1` was tested, and the T/C (dose: 50.0 mg/kg/injection, schedule: Q01DX009 (ip), vehicle: Klucel (hydroxypropylcellulose) (HPC)) was 109 % of control, the T/C (dose: 100.0 mg/kg/injection, schedule: Q01DX009 (ip), vehicle: Klucel (hydroxypropylcellulose) (HPC)) was 102 % of control and the T/C (dose: 200.0 mg/kg/injection, schedule: Q01DX009 (ip), vehicle: Klucel (hydroxypropylcellulose) (HPC)) was 107 % of control. The T/C (dose: 400.0 mg/kg/injection, schedule: Q01DX009 (ip), vehicle: Klucel (hydroxypropylcellulose) (HPC)) was 93 % of control.
In the case of `O=C(O)CCC(=O)OC(C1CO1)C(OC(=O)CCC(=O)O)C1CO1` (centres undefined), the T/C (dose: 2.5 mg/kg/injection, schedule: Q01DX009 (ip), vehicle: saline) is reported as 90 % of control, the T/C (dose: 2.5 mg/kg/injection, schedule: Q01DX009 (ip), vehicle: sodium bicarbonate) is reported as 103 % of control and the T/C (dose: 5.0 mg/kg/injection, schedule: Q01DX009 (ip), vehicle: saline) is reported as 116 % of control. The T/C (dose: 5.0 mg/kg/injection, schedule: Q01DX009 (ip), vehicle: sodium bicarbonate) was 101 % of control, the T/C (dose: 10.0 mg/kg/injection, schedule: Q01DX009 (ip), vehicle: sodium bicarbonate) was 120 % of control and the T/C (dose: 20.0 mg/kg/injection, schedule: Q01DX009 (ip), vehicle: saline) was 153 % of control. The T/C (dose: 20.0 mg/kg/injection, schedule: Q01DX009 (ip), vehicle: sodium bicarbonate) was 122 % of control, the T/C (dose: 40.0 mg/kg/injection, schedule: Q01DX009 (ip), vehicle: saline) was 167 % of control and the T/C (dose: 80.0 mg/kg/injection, schedule: Q01DX009 (ip), vehicle: saline) was 206 % of control. The T/C (dose: 80.0 mg/kg/injection, schedule: Q01DX009 (ip), vehicle: sodium bicarbonate) was 169 % of control, the T/C (dose: 160.0 mg/kg/injection, schedule: Q01DX009 (ip), vehicle: sodium bicarbonate) was 198 % of control and the T/C (dose: 320.0 mg/kg/injection, schedule: Q01DX009 (ip), vehicle: saline) was 87 % of control. The T/C (dose: 320.0 mg/kg/injection, schedule: Q01DX009 (ip), vehicle: sodium bicarbonate) was 93 % of control.

Reference: PubChem BioAssay AID330 (DTP/NCI, 2004)
